# Measured values taken from patent publication US12370170B2, “Composition comprising naphthoquinone-based compound as active ingredient, for preventing or ameliorating fatigue, cachexia, pain, cognitive decline and hematopoietic stem cell reduction which are side effects related to anticancer drug treatment” (NADIANBIO LTD., priority 2016, dated 2025).
# Legend:
# Type in all cases: in vivo, C57BL/6 mice
# [1] = system: bone marrow cells and hematopoietic stem/progenitor cells; test: Bone marrow hematopoietic stem cell reduction by flow cytometry, 3×ACP animal model; conditions: 2 days after ACP
# Method: (§1) In this invention, 11 weeks old C57BL/6 mice were used. All the mice used in the experiments of the invention were raised in an aseptic animal room at the temperature of 22˜26 L with the humidity of 55˜60%. The mice were allowed to take general solid feed (SAMTACO Co., Ltd., Korea) and water freely. The mice were adapted for 1 week before the experiment. All the experiments were performed after obtaining approval from the clinical trial management committee in accordance with the laboratory animal care and ethics regulations of Wonkwang University. The mouse animal model of the present invention was treated with different anticancer drugs. Particularly, one kind of anticancer drug was administered intraperitoneally one time or more, or several kinds of anticancer drugs were administered once or more times or at different concentrations, leading to the establishment of the animal model of the invention. In the adriamycin-induced animal model, the mice were divided into 6 groups as follows: the control group administered with PBS (Control, 5 mice), the group administered intraperitoneally with adriamycin (4 mg/kg/day) 3 times (ADR, 5 mice), the group administered orally with dunnione or β-lapachone from 3 days before the adriamycin treatment daily (20 mg/kg, 5 mice), and the group administered with dunnione or β-lapachone (20 mg/kg, 5 mice). 4 days after the final adriamycin treatment, analysis of the mice was performed.
# In the 3×ACP induced animal model for the analysis of bone marrow hematopoietic stem cell protective effect, the mice were divided into 4 groups as follows: the control group administered with PBS (Control, 4 mice), the group administered intraperitoneally with 3×ACP once (3×ACP, 4 mice), the group administered orally with dunnione from 3 days before the 3×ACP treatment daily (20 mg/kg, 4 mice), and the group administered with dunnione (20 mg/kg, 4 mice). 2 days after the ACP treatment, analysis of the mice was performed. […]
# As a result, as shown in FIG. 9 presenting the results of flow cytometry for the quantitative analysis of bone marrow hematopoietic cells, the region where lineage negative cells were distributed was gated. […] Next, hematopoietic stem cells and multipotent progenitor cells were separated and analyzed, leading to the analysis of multipotent progenitor cell-4 (MPP4) and hematopoietic stem cell/progenitor cell (HSPC). With the hematopoietic stem cell/progenitor cell group, long-term hematopoietic stem cells (HSC^LT), short-term hematopoietic stem cells (HSC^ST), and multipotent progenitor cell-2 and -3 (MPP2 and MPP3) were analyzed. In FIG. 9, the results of flow cytometry analyzed for each group are presented. […]
# [2] = system: inflammatory cytokines TNF-α, IL-1β, IL-6 and IL-17; test: Plasma inflammatory cytokines by ELISA in 3× and 6×ACP animal model; conditions: dunnione 20 mg/kg oral daily from 3 days before, 3 days after ACP
# Method: In this invention, 11 weeks old C57BL/6 mice were used. All the mice used in the experiments of the invention were raised in an aseptic animal room at the temperature of 22˜26 L with the humidity of 55˜60%. The mice were allowed to take general solid feed (SAMTACO Co., Ltd., Korea) and water freely. The mice were adapted for 1 week before the experiment. All the experiments were performed after obtaining approval from the clinical trial management committee in accordance with the laboratory animal care and ethics regulations of Wonkwang University. The mouse animal model of the present invention was treated with different anticancer drugs. Particularly, one kind of anticancer drug was administered intraperitoneally one time or more, or several kinds of anticancer drugs were administered once or more times or at different concentrations, leading to the establishment of the animal model of the invention. […]
# Plasma was isolated from the 3× and 6×ACP animal model prepared by the same manner as described in Example 7, and the inflammatory cytokines TNF-α, IL-1β, IL-6 and IL-17 were analyzed by ELISA.
# [3] = system: F4/80 positive cells (macrophages); test: Inflow of macrophages into femur, F4/80 immunohistostaining, 4×ACP animal model; conditions: dunnione 80 mg/kg oral
# Method: as §1, with “4 days after the final adriamycin treatment, analysis of the mice was performed.” left out
# [4] = system: inflammatory cytokines TNF-α and IL-1β; test: Brain inflammatory response: TNF-α and IL-1β in hypothalamus (RT-PCR, ELISA), 4×ACP animal model; conditions: dunnione 80 mg/kg oral
# Method: as §1
# The present inventors established an animal model co-treated with three different anticancer drugs in this experiment. The anticancer drugs used herein were adriamycin (ADR), cyclophosphamide (CYP) and paclitaxel (PTX), which were indicated as ACP. […]
# A homogenate was prepared with the mouse hypothalamus extracted from the 4×ACP animal model prepared by the same manner as described in Example 8. Then, the expressions of the inflammatory cytokines TNF-α and IL-1β in the brain tissue were analyzed by ELISA.
structure (smiles),measurement,setting,value
"CC1OC2=C(C(=O)C(=O)c3ccccc32)C1(C)C (stereo not drawn) [dunnione, 2,3-dihydro-2,3,3-trimethyl naphtho [1,2-b]furan-4,5-dione]","total bone marrow cell number, increase relative to the group treated with the anticancer drugs",[1]; 3×ACP + dunnione 20 mg/kg oral daily from 3 days before,at least three times
same,"number of hematopoietic stem cell/progenitor cell, increase by dunnione",[1]; 3×ACP + dunnione 20 mg/kg oral,as much as three times
same,"number of long-term hematopoietic stem cells (HSC^LT), increase relative to the group treated with the anticancer drugs",[1]; 3×ACP + dunnione 20 mg/kg oral,at least 2 times
same,"number of short-term hematopoietic stem cells (HSC^ST), increase relative to the group treated with the anticancer drugs",[1]; 3×ACP + dunnione 20 mg/kg oral,≥ 8 times
same,"level of inflammatory cytokines (TNF-α, IL-1β, IL-6, IL-17) in plasma",[2]; 3×ACP i.p. once,significantly inhibited
same,"level of inflammatory cytokines (TNF-α, IL-1β, IL-6, IL-17) in plasma",[2]; 6×ACP i.p. once,significantly inhibited
same,increased F4/80 positive cells in the bone (femur),[3],significantly reduced
same,up-regulations of TNF-α and IL-1β at protein level in the hypothalamus,[4]; ELISA,significantly suppressed
same,up-regulations of TNF-α and IL-1β at RNA level in the hypothalamus,[4]; RT-PCR,significantly suppressed
